Test results from patent publication US20230372433A1, “NANOPARTICLE FOR ANTI-CANCER PEPTIDES AND USES THEREOF” (KING'S COLLEGE LONDON, priority 2020, published 2023).

Key:
[1] = Tryptophan fluorescent binding assay, POPC vesicles; conditions: 50 μM peptide, PBS pH 7.4
How it was run: (§1)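 Tryptophan fluorescence was measured with peptide fixed at 50 μM and POPC or 3POPC/1POPG LUVs (100 nm extruded) titrated 0–5000 μM in PBS pH 7.4, read after 60 min. Excitation was 280 nm and emission 300–450 nm. The value is the lipid concentration giving 50% peptide binding, expressed as lipid per peptide.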

[2] = Tryptophan fluorescent binding assay, 3POPC/1POPG vesicles; conditions: 50 μM peptide, PBS pH 7.4
How it was run: as §1

[3] = ANTS/DPX liposome leakage assay, POPC vesicles; assay type: biochemical; conditions: 0.5 mM vesicles
How it was run: (§2)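 0.5 mM extruded 100 nm LUVs loaded with 5 mM ANTS/12.5 mM DPX were incubated 3 h with peptide at 0–20 μM in PBS pH 7.4 or HCl-adjusted PBS pH 4.8. Fluorescence read at ex 350/em 510 nm; 10% Triton set maximum leakage; values expressed as lipid per peptide.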

[4] = ANTS/DPX liposome leakage assay, 3POPC/1POPG vesicles; assay type: biochemical
How it was run: as §2

human red blood cells = system: human red blood cells
Procedure: Peptides were serially diluted in PBS starting at a concentration of 100 μM. The final volume of peptide in each well was 50 μL. To each well, 50 μL of RBCs in PBS at 2×10^8 cells/mL was added. As a positive lysis control, 1% triton was used. The mixtures were incubated at 37° C. for 1 hour, after which they were centrifuged at 1000x g for 5 minutes. After centrifugation, 10 μL of supernatant was transferred to 90 μL of DI H2O in a fresh 96-well plate. The absorbance of released hemoglobin at 410 nm was recorded and the fractional hemolysis was calculated based on the 100% and 0% lysis controls.

HMLER-shEcad cells = assay: HMLER-shEcad viability with co-incubated necrostatin or z-VAD-FMK; assay type: cell-based, human

SMILES: CC(C)C[C@H](NC(=O)CN)C(=O)N[C@@H](CC(C)C)C(=O)N[C@@H](CCC(=O)O)C(=O)N[C@@H](CC(C)C)C(=O)N[C@@H](CC(C)C)C(=O)N[C@@H](CCC(=O)O)C(=O)N[C@@H](CC(C)C)C(=O)N[C@@H](CC(C)C)C(=O)N[C@@H](CC(C)C)C(=O)N[C@@H](CCCCN)C(=O)N[C@@H](C)C(=O)N[C@@H](C)C(=O)NCC(=O)N[C@@H](Cc1c[nH]c2ccccc12)C(N)=O [EEK]
- Lipid Concentration-induced 50% Peptide Binding (L/P) POPC Vesicle [1]: 0.48 L/P
- Lipid Concentration-induced 50% Peptide Binding (L/P) 3POPC/1POPG Vesicle [2]: 4.50 L/P
- Peptide Concentration-induced 50% ANTS/DPX leakage at pH 4.8 (L/P) POPC Vesicle ([3]; pH 4.8): 39 L/P
- Peptide Concentration-induced 50% ANTS/DPX leakage at pH 7.4 (L/P) POPC Vesicle ([3]; pH 7.4): 730 L/P
- Peptide Concentration-induced 50% ANTS/DPX leakage at pH 4.8 (L/P) 3POPC/1POPG Vesicle ([4]; 0.5 mM vesicles, pH 4.8): 386 L/P
- Peptide Concentration-induced 50% ANTS/DPX leakage at pH 7.4 (L/P) 3POPC/1POPG Vesicle ([4]; 0.5 mM vesicles, pH 7.4): 657 L/P
- liposome leakage activity from anionic vesicle at pH 4.8 ([4]; compared with zwitterionic vesicle, pH 4.8): relatively higher liposome leakage activity
- concentration below which minimal lysis is caused (human red blood cells): below 90 μM
- cell viability on co-incubation with necrostatin or z-VAD-FMK (HMLER-shEcad cells): cannot be improved
